Here are results for two substances from patent US4259450A, “Antibiotic acanthomycin and process for preparing” (The Upjohn Company, priority 1977, dated 1981).

The nature of data set [1]: Solubilities. Type of data set: physicochemical.
Data set [2] relates to S. lutea. Kind of data set: standard tube assay for antibacterial activity, nutrient broth. The class given is cell-based, Sarcina lutea. The procedure:
(§1) Acanthomycin was tested for antibacterial activity in a standard tube assay using nutrient broth as the medium. The minimum inhibitory concentration in mcg/ml against S. aureus was 50, and against S. lutea it was 25. Additional testing on a standard disc (12.7 mm) plate assay gave the following results: […]

Data set [3] concerns S. aureus. Kind of data set: in vivo protection of S. aureus infected mice. The procedure:
Acanthomycin was also tested in vivo in standard laboratory mice. […] Against S. aureus infected mice the CD50 was 1.0 mg/kg.

Data set [4] relates to Bacillus cereus. Kind of data set: standard disc (12.7 mm) plate assay. Type of data set: cell-based. The protocol: (§2) Acanthomycin was tested for antibacterial activity in a standard tube assay using nutrient broth as the medium. The minimum inhibitory concentration in mcg/ml against S. aureus was 50, and against S. lutea it was 25. Additional testing on a standard disc (12.7 mm) plate assay gave the following results:
(§3) The fermentation can be monitored by a disc-plate assay using B. subtilis as the test organism and deionized H2 O as diluent. A unit volume (0.08 ml) of solution containing the substance to be assayed is placed on a 12.7 mm paper disc which is then placed on an agar plate seeded with the assay organism. The agar plate is then incubated for 16 to 18 hours at 32° to 37° C. A biounit (BU) is defined as the concentration of the antibiotic which gives a 20 mm zone of inhibition under the standard assay conditions. Thus, if for example a fermentation beer has to be diluted 1/100 to give a 20 mm zone of inhibition, the potency of such beer is 100 BU/ml.

Data set [5] relates to Staphylococcus aureus. In words: standard disc (12.7 mm) plate assay. Type of data set: cell-based. The procedure: as §2, §3
The subject of data set [6] is Streptococcus pyogenes. In words: standard disc (12.7 mm) plate assay. Type of data set: cell-based. The protocol: as §2, §3
Data set [7] has as its system Bacillus subtilis. In words: standard disc (12.7 mm) plate assay. The class given is cell-based. The protocol:
as §2, §3

The test system of data set [8] is Sarcina lutea. In words: standard disc (12.7 mm) plate assay. The class given is cell-based. The procedure: as §2, §3
Data set [9] deals with S. aureus. In words: standard tube assay for antibacterial activity, nutrient broth. The class given is cell-based, Staphylococcus aureus. The procedure:
as §1

The test system of data set [10] is S. pyogenese. In words: in vivo protection of S. pyogenes infected mice. Conditions: administered subcutaneously.
The mark [11] stands for this setting: free acid, slightly soluble, ca.

For the substance acanthomycin ammonium salt, in data set [1] (salts (ammonium and sodium)), the “solubility in lower alcohols” value is on record as “soluble” and the solubility in water result is given as “soluble”.
For the substance acanthomycin, the values for the minimum inhibitory concentration in data set [2] and in data set [9] were 25 µg/mL and 50 µg/mL, respectively. In addition, in [1] (free acid), the solubility in dimethylformamide entry is recorded as “soluble”. In [1] (free acid), the solubility in dimethylsulfoxide entry was “soluble”. Also, the solubility in ether result in data set [1] (free acid) is “relatively insoluble”. For the same substance, in [1] (free acid), the “solubility in halogenated hydrocarbon solvents” value is reported as “relatively insoluble”. Besides, the “solubility in saturated hydrocarbon solvents” value in [1] (free acid) is reported as “relatively insoluble”. Further, the solubility in water result in [1] (free acid) was “relatively insoluble”. Besides, in data set [1] (setting [11]), the solubility in ethanol lay in the range of 1000 to 2000 µg/mL. For the same substance, the solubility in methanol in data set [1] (setting [11]) is 1000 to 2000 µg/mL. Also, the CD50 is recorded as 1.0 mg/kg in data set [3] and 0.23 (0.17-0.31) mg/kg in [10]. Also, the Zone is 17 mm in data set [4] (0.31 mg/ml); 20 mm in data set [4] (0.62 mg/ml); 21 mm in [4] (1.25 mg/ml); 23 mm in data set [4] (2.5 mg/ml); 25 mm in data set [4] (5 mg/ml); 26 mm in data set [4] (10 mg/ml). Further, the Zone in data set [5] (0.31 mg/ml) was 22.5 mm; in [5] (0.62 mg/ml), 24.5 mm; in data set [5] (1.25 mg/ml), 26.5 mm; in data set [5] (2.5 mg/ml), 28 mm; in [5] (5 mg/ml), 28.5 mm; in data set [5] (10 mg/ml), 29.5 mm. Besides, the Zone in data set [6] (0.31 mg/ml) came out at 34 mm; in data set [6] (0.62 mg/ml) it was 36.5 mm; in [6] (1.25 mg/ml), 38.5 mm; in [6] (2.5 mg/ml), 40 mm; in data set [6] (5 mg/ml), 40 mm; in data set [6] (10 mg/ml), 41.5 mm. For the same substance, the Zone was 26 mm in data set [7] (0.31 mg/ml); 28 mm in data set [7] (0.62 mg/ml); 30 mm in [7] (1.25 mg/ml); 31.5 mm in data set [7] (2.5 mg/ml); 33 mm in data set [7] (5 mg/ml); 34 mm in data set [7] (10 mg/ml). For the same substance, the Zone in data set [8] (0.31 mg/ml) was found to be 25 mm; in data set [8] (0.62 mg/ml), 27 mm; in [8] (1.25 mg/ml), 30 mm; in data set [8] (2.5 mg/ml), 32 mm; in data set [8] (5 mg/ml) it was 34 mm; in [8] (10 mg/ml), 35 mm. Besides, the “activity against S. aureus” value in data set [5] (statement in words) is “active”. For the same substance, the “activity against B. subtilis” value in [7] (statement in words) is “active”.
